Laboratory results taken from patent publication US20120101032A1, “NOVEL MACROCYCLIC INHIBITORS OF HEPATITIS C VIRUS REPLICATION” (priority 2010, published 2012).

Tests used:
[1] = tested on: hepatitis C replicon; test: hepatitis C replicon EC50 assay; type: cell-based; details: Hepatitis C virus; hepatitis C replicon; read-out: EC50
Source text: NS3-NS4 inhibition activity can be determined using known assay methods.

[2] = target: NS3/NS4 complexes (Hepatitis C virus genotype 1a, UniProt P27958); test: biochemical; details: NS3-NS4 activity; 23° C., pH 7.5, 25 μM NS4A peptide; read-out: IC50
Source text: NS3-NS4 inhibition activity can be determined using known assay methods. For example, NS3/NS4 complexes may be formed and inhibitory concentrations of test compounds determined as described in U.S. Patent Application Publication Number 2007/0054842 paragraph numbers 1497-1509, which is incorporated herein by reference in its entirety. Similarly, hepatitis C replicon EC50 may be determined using known assay methods such as described in U.S. Patent Application Publication Number 2007/0054842 paragraph numbers 1510-1515, which is incorporated herein by reference in its entirety. Assays may be conducted at ambient temperature (23° C.) in assay buffer containing 50 mM Tris-HCl, pH 7.5, 15% glycerol, 0.6 mM Lauryldimethylamine Oxide (LDAO), 25 μM NS4A peptide, and 10 mM Dithiothreitol (DTT).

Chain of NS3/NS4 complexes (P27958 1027-1657, one chain of several): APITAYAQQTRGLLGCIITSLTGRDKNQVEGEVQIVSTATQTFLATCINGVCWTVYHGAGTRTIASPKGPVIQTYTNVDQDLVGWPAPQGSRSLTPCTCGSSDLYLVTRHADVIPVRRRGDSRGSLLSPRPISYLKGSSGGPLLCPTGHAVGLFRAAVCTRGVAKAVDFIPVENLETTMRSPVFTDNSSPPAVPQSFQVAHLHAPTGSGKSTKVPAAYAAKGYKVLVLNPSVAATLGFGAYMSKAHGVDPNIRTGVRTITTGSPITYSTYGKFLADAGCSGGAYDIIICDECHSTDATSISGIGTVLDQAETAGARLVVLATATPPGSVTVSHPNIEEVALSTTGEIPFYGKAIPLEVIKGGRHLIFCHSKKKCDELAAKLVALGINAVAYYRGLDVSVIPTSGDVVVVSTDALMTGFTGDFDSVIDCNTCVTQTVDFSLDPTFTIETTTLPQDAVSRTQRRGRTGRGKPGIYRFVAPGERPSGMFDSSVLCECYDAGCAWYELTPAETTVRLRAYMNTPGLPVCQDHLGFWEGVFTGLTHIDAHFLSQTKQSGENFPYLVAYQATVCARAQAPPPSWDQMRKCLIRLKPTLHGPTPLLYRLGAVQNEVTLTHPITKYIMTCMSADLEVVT

Compound | EC50 [1] [nM] | IC50 [2] [nM]
COc1cccc(-c2csc(-c3cccc4c3nc(O[C@@H]3C[C@H]5C(=O)N[C@]6(C(=O)NS(=O)(=O)N(C)C)C[C@H]6/C=C\CCCCC[C@H](NC(=O)OC(C)(C)C)C(=O)N5C3)n4C(C)C)n2)c1 [Compound 132] | 10 to 100 | < 10
CC(C)n1c(O[C@@H]2C[C@H]3C(=O)N[C@]4(C(=O)NS(=O)(=O)N(C)C)C[C@H]4/C=C\CCCCC[C@H](NC(=O)OC(C)(C)C)C(=O)N3C2)nc2c(-c3nc(-c4cccc(F)c4)cs3)cccc21 [Compound 133] | 10 to 100 | < 10
CC(C)n1c(O[C@@H]2C[C@H]3C(=O)N[C@]4(C(=O)NS(=O)(=O)N(C)C)C[C@H]4/C=C\CCCCC[C@H](NC(=O)OC(C)(C)C)C(=O)N3C2)nc2c(-c3nc(-c4ccc(F)cc4)cs3)cccc21 [Compound 134] | 10 to 100 | < 10
CC(C)n1c(O[C@@H]2C[C@H]3C(=O)N[C@]4(C(=O)NS(=O)(=O)N(C)C)C[C@H]4/C=C\CCCCC[C@H](NC(=O)OC(C)(C)C)C(=O)N3C2)nc2c(-c3nc(-c4ccc(F)c(C(F)(F)F)c4)cs3)cccc21 [Compound 135] | > 100 | < 10
CC(C)n1c(O[C@@H]2C[C@H]3C(=O)N[C@]4(C(=O)NS(=O)(=O)N(C)C)C[C@H]4/C=C\CCCCC[C@H](NC(=O)OC(C)(C)C)C(=O)N3C2)nc2c(-c3nc(-c4ccc(OC(F)(F)F)cc4)cs3)cccc21 [Compound 136] | > 100 | < 10
CC(C)n1c(O[C@@H]2C[C@H]3C(=O)N[C@]4(C(=O)NS(=O)(=O)N(C)C)C[C@H]4/C=C\CCCCC[C@H](NC(=O)OC(C)(C)C)C(=O)N3C2)nc2c(-c3nc(-c4ccc(Br)cc4)cs3)cccc21 [Compound 137] | > 100 | < 10
CC(C)n1c(O[C@@H]2C[C@H]3C(=O)N[C@]4(C(=O)NS(=O)(=O)N(C)C)C[C@H]4/C=C\CCCCC[C@H](NC(=O)OC(C)(C)C)C(=O)N3C2)nc2c(-c3nc(-c4ccc(Cl)c(Cl)c4)cs3)cccc21 [Compound 138] | > 100 | < 10
CC(C)n1c(O[C@@H]2C[C@H]3C(=O)N[C@]4(C(=O)NS(=O)(=O)N(C)C)C[C@H]4/C=C\CCCCC[C@H](NC(=O)OC(C)(C)C)C(=O)N3C2)nc2c(-c3nc(-c4ccc(F)cc4F)cs3)cccc21 [Compound 139] | 10 to 100 | < 10
CC(C)n1c(O[C@@H]2C[C@H]3C(=O)N[C@]4(C(=O)NS(=O)(=O)N(C)C)C[C@H]4/C=C\CCCCC[C@H](NC(=O)OC(C)(C)C)C(=O)N3C2)nc2c(-c3nc(-c4ccc(F)c(F)c4)cs3)cccc21 [Compound 140] | < 10 | < 10
CC(C)n1c(O[C@@H]2C[C@H]3C(=O)N[C@]4(C(=O)NS(=O)(=O)N(C)C)C[C@H]4/C=C\CCCCC[C@H](NC(=O)OC(C)(C)C)C(=O)N3C2)nc2c(-c3nc(-c4ccc(C(F)(F)F)cc4)cs3)cccc21 [Compound 141] | > 100 | < 10
CC(C)n1c(O[C@@H]2C[C@H]3C(=O)N[C@]4(C(=O)NS(=O)(=O)N(C)C)C[C@H]4/C=C\CCCCC[C@H](NC(=O)OC(C)(C)C)C(=O)N3C2)nc2c(-c3nc(-c4ccc5c(c4)OCCO5)cs3)cccc21 [Compound 142] | 10 to 100 | < 10
CC(C)n1c(O[C@@H]2C[C@H]3C(=O)N[C@]4(C(=O)NS(=O)(=O)N(C)C)C[C@H]4/C=C\CCCCC[C@H](NC(=O)OC(C)(C)C)C(=O)N3C2)nc2c(-c3nc(-c4ccc(C(C)(C)C)cc4)cs3)cccc21 [Compound 143] | 10 to 100 | < 10
Cc1cccc(Cc2csc(-c3cccc4c3nc(O[C@@H]3C[C@H]5C(=O)N[C@]6(C(=O)NS(=O)(=O)N(C)C)C[C@H]6/C=C\CCCCC[C@H](NC(=O)OC(C)(C)C)C(=O)N5C3)n4C(C)C)n2)c1 [Compound 144] | < 10 | < 10
Cc1ccc(Cc2csc(-c3cccc4c3nc(O[C@@H]3C[C@H]5C(=O)N[C@]6(C(=O)NS(=O)(=O)N(C)C)C[C@H]6/C=C\CCCCC[C@H](NC(=O)OC(C)(C)C)C(=O)N5C3)n4C(C)C)n2)cc1 [Compound 146] | < 10 | < 10
COc1ccccc1Cc1csc(-c2cccc3c2nc(O[C@@H]2C[C@H]4C(=O)N[C@]5(C(=O)NS(=O)(=O)N(C)C)C[C@H]5/C=C\CCCCC[C@H](NC(=O)OC(C)(C)C)C(=O)N4C2)n3C(C)C)n1 [Compound 147] | < 10 | < 10
CC(C)c1ccc(Cc2csc(-c3cccc4c3nc(O[C@@H]3C[C@H]5C(=O)N[C@]6(C(=O)NS(=O)(=O)N(C)C)C[C@H]6/C=C\CCCCC[C@H](NC(=O)OC(C)(C)C)C(=O)N5C3)n4C(C)C)n2)cc1 [Compound 148] | 10 to 100 | < 10
CC(C)n1c(O[C@@H]2C[C@H]3C(=O)N[C@]4(C(=O)NS(=O)(=O)N(C)C)C[C@H]4/C=C\CCCCC[C@H](NC(=O)OC(C)(C)C)C(=O)N3C2)nc2c(-c3nc(Cc4cccc(C(F)(F)F)c4)cs3)cccc21 [Compound 149] | 10 to 100 | < 10
CC(C)n1c(O[C@@H]2C[C@H]3C(=O)N[C@]4(C(=O)NS(=O)(=O)N(C)C)C[C@H]4/C=C\CCCCC[C@H](NC(=O)OC(C)(C)C)C(=O)N3C2)nc2c(-c3nc(Cc4cccc(OC(F)(F)F)c4)cs3)cccc21 [Compound 150] | 10 to 100 | < 10
CC(C)n1c(O[C@@H]2C[C@H]3C(=O)N[C@]4(C(=O)NS(=O)(=O)N(C)C)C[C@H]4/C=C\CCCCC[C@H](NC(=O)OC(C)(C)C)C(=O)N3C2)nc2c(-c3nc(Cc4ccc(Cl)cc4)cs3)cccc21 [Compound 151] | < 10 | < 10
COc1cccc(Cc2csc(-c3cccc4c3nc(O[C@@H]3C[C@H]5C(=O)N[C@]6(C(=O)NS(=O)(=O)N(C)C)C[C@H]6/C=C\CCCCC[C@H](NC(=O)OC(C)(C)C)C(=O)N5C3)n4C(C)C)n2)c1 [Compound 152] | < 10 | < 10
CC(C)n1c(O[C@@H]2C[C@H]3C(=O)N[C@]4(C(=O)NS(=O)(=O)N(C)C)C[C@H]4/C=C\CCCCC[C@H](NC(=O)OC(C)(C)C)C(=O)N3C2)nc2c(-c3nc(Cc4cccc(Br)c4)cs3)cccc21 [Compound 153] | 10 to 100 | < 10
CC(C)n1c(O[C@@H]2C[C@H]3C(=O)N[C@]4(C(=O)NS(=O)(=O)N(C)C)C[C@H]4/C=C\CCCCC[C@H](NC(=O)OC(C)(C)C)C(=O)N3C2)nc2c(-c3nc(Cc4ccc(-c5ccccc5)cc4)cs3)cccc21 [Compound 154] | 10 to 100 | < 10
CC(C)n1c(O[C@@H]2C[C@H]3C(=O)N[C@]4(C(=O)NS(=O)(=O)N(C)C)C[C@H]4/C=C\CCCCC[C@H](NC(=O)OC(C)(C)C)C(=O)N3C2)nc2c(-c3nc(Cc4ccc(OC(F)(F)F)cc4)cs3)cccc21 [Compound 155] | 10 to 100 | < 10
CC(C)n1c(O[C@@H]2C[C@H]3C(=O)N[C@]4(C(=O)NS(=O)(=O)N(C)C)C[C@H]4/C=C\CCCCC[C@H](NC(=O)OC(C)(C)C)C(=O)N3C2)nc2c(-c3nc(Cc4ccccc4F)cs3)cccc21 [Compound 156] | < 10 | < 10
COc1ccc(Cc2csc(-c3cccc4c3nc(O[C@@H]3C[C@H]5C(=O)N[C@]6(C(=O)NS(=O)(=O)N(C)C)C[C@H]6/C=C\CCCCC[C@H](NC(=O)OC(C)(C)C)C(=O)N5C3)n4C(C)C)n2)cc1 [Compound 157] | < 10 | < 10
CC(C)n1c(O[C@@H]2C[C@H]3C(=O)N[C@]4(C(=O)NS(=O)(=O)N(C)C)C[C@H]4/C=C\CCCCC[C@H](NC(=O)OC(C)(C)C)C(=O)N3C2)nc2c(-c3csc(N4CCCC4)n3)cccc21 [Compound 158] | < 10 | < 10
CC(C)n1c(O[C@@H]2C[C@H]3C(=O)N[C@]4(C(=O)NS(=O)(=O)N(C)C)C[C@H]4/C=C\CCCCC[C@H](NC(=O)OC(C)(C)C)C(=O)N3C2)nc2c(-c3cnccn3)cccc21 [Compound 159] | < 10 | < 10
CC(C)n1c(O[C@@H]2C[C@H]3C(=O)N[C@]4(C(=O)NS(=O)(=O)N(C)C)C[C@H]4/C=C\CCCCC[C@H](NC(=O)OC(C)(C)C)C(=O)N3C2)nc2c(-c3csc(N4CCN(C)CC4)n3)cccc21 [Compound 160] | < 10 | < 10
CC(C)n1c(O[C@@H]2C[C@H]3C(=O)N[C@]4(C(=O)NS(=O)(=O)N(C)C)C[C@H]4/C=C\CCCCC[C@H](NC(=O)OC(C)(C)C)C(=O)N3C2)nc2c(-c3cncnc3)cccc21 [Compound 161] | < 10 | < 10
CC(C)n1c(O[C@@H]2C[C@H]3C(=O)N[C@]4(C(=O)NS(=O)(=O)N(C)C)C[C@H]4/C=C\CCCCC[C@H](NC(=O)OC(C)(C)C)C(=O)N3C2)nc2c(-c3cncc(N4CCCC4)n3)cccc21 [Compound 162] | < 10 | < 10
